Results published in the NIST ThermoML archive (doi:10.1021/je8002817).
± gives the expanded uncertainty stated by the source.

Settings: Liquid

CCCC[N+]1(C)CCCC1.O=S(=O)([N-]S(=O)(=O)C(F)(F)F)C(F)(F)F
Settings | mass density [kg/m3]
293.49 K, 101.33 kPa | 1398 ± 1.6
293.5 K, 10000 kPa | 1404 ± 1.5
293.5 K, 20000 kPa | 1409.8 ± 1.9
293.5 K, 30000 kPa | 1415.5 ± 2.3
293.5 K, 40000 kPa | 1421 ± 2.8
293.51 K, 1000 kPa | 1398.6 ± 1.2
293.51 K, 5000 kPa | 1401 ± 1.4
302.66 K, 101.33 kPa | 1390.1 ± 1.5
312.62 K, 101.33 kPa | 1381.5 ± 1.5
322.31 K, 10000 kPa | 1379.7 ± 1.5
322.31 K, 20000 kPa | 1386 ± 1.9
322.31 K, 40000 kPa | 1398.2 ± 2.6
322.32 K, 5000 kPa | 1376.4 ± 1.3
322.32 K, 30000 kPa | 1392.2 ± 2.2
322.33 K, 1000 kPa | 1373.8 ± 1.2
322.35 K, 101.33 kPa | 1373.2 ± 1.5
332.63 K, 101.33 kPa | 1364.3 ± 1.5
342.54 K, 101.33 kPa | 1355.9 ± 1.5
352.31 K, 20000 kPa | 1361.5 ± 1.8
352.31 K, 40000 kPa | 1374.5 ± 2.5
352.32 K, 101.33 kPa | 1347.5 ± 1.4
352.32 K, 10000 kPa | 1354.5 ± 1.4
352.33 K, 5000 kPa | 1351 ± 1.3
352.33 K, 30000 kPa | 1368.1 ± 2.1
352.35 K, 1000 kPa | 1348.1 ± 1.2
373.31 K, 5000 kPa | 1333.2 ± 1.3
373.31 K, 30000 kPa | 1351.3 ± 2.1
373.32 K, 1000 kPa | 1330.1 ± 1.2
373.33 K, 101.33 kPa | 1329.5 ± 1.4
373.33 K, 10000 kPa | 1337 ± 1.4
373.34 K, 20000 kPa | 1344.2 ± 1.7
373.34 K, 40000 kPa | 1358 ± 2.4
391.26 K, 1000 kPa | 1314.9 ± 1.2
391.29 K, 10000 kPa | 1322 ± 1.4
391.29 K, 30000 kPa | 1337 ± 2
391.3 K, 101.33 kPa | 1314.1 ± 1.4
391.3 K, 5000 kPa | 1318.1 ± 1.3
391.32 K, 20000 kPa | 1329.6 ± 1.7
391.32 K, 40000 kPa | 1344 ± 2.4
414.93 K, 101.33 kPa | 1293.9 ± 1.3
414.93 K, 5000 kPa | 1298.1 ± 1.2
414.93 K, 10000 kPa | 1302.4 ± 1.4
414.93 K, 20000 kPa | 1310.5 ± 1.6
414.93 K, 30000 kPa | 1318.1 ± 1.9
414.93 K, 40000 kPa | 1325.6 ± 2.3
414.94 K, 1000 kPa | 1294.7 ± 1.2

CCCC[N+](C)(C)C.O=S(=O)([N-]S(=O)(=O)C(F)(F)F)C(F)(F)F [butyltrimethylammonium bis(trifluoromethylsulfonyl)imide]
Settings | mass density [kg/m3]
293.48 K, 101.33 kPa | 1396.3 ± 1.6
293.48 K, 1000 kPa | 1396.8 ± 1.2
293.49 K, 5000 kPa | 1398.8 ± 1.3
293.5 K, 40000 kPa | 1416.7 ± 2.7
293.51 K, 10000 kPa | 1401.4 ± 1.5
293.51 K, 20000 kPa | 1406.6 ± 1.9
293.51 K, 30000 kPa | 1411.7 ± 2.3
302.84 K, 101.33 kPa | 1387.9 ± 1.5
312.82 K, 101.33 kPa | 1379 ± 1.5
322.29 K, 5000 kPa | 1373.5 ± 1.3
322.31 K, 20000 kPa | 1382.2 ± 1.8
322.32 K, 10000 kPa | 1376.4 ± 1.5
322.32 K, 40000 kPa | 1393.2 ± 2.6
322.33 K, 101.33 kPa | 1370.5 ± 1.5
322.33 K, 30000 kPa | 1387.7 ± 2.2
322.34 K, 1000 kPa | 1371.1 ± 1.2
332.75 K, 101.33 kPa | 1361.3 ± 1.5
342.67 K, 101.33 kPa | 1352.5 ± 1.5
352.27 K, 20000 kPa | 1356.9 ± 1.8
352.29 K, 10000 kPa | 1350.5 ± 1.4
352.3 K, 5000 kPa | 1347.3 ± 1.3
352.32 K, 40000 kPa | 1369.1 ± 2.5
352.34 K, 30000 kPa | 1363 ± 2.1
352.36 K, 101.33 kPa | 1343.9 ± 1.4
352.36 K, 1000 kPa | 1344.6 ± 1.2
373.28 K, 5000 kPa | 1328.9 ± 1.2
373.3 K, 10000 kPa | 1332.4 ± 1.4
373.3 K, 20000 kPa | 1339.2 ± 1.7
373.31 K, 101.33 kPa | 1325.5 ± 1.4
373.31 K, 30000 kPa | 1345.8 ± 2
373.33 K, 1000 kPa | 1326.2 ± 1.1
373.35 K, 40000 kPa | 1352.3 ± 2.4
391.25 K, 30000 kPa | 1331.2 ± 2
391.26 K, 10000 kPa | 1316.9 ± 1.4
391.27 K, 1000 kPa | 1310.5 ± 1.1
391.28 K, 101.33 kPa | 1309.7 ± 1.4
391.28 K, 20000 kPa | 1324.2 ± 1.7
391.31 K, 5000 kPa | 1313.1 ± 1.2
391.31 K, 40000 kPa | 1338.1 ± 2.3
414.89 K, 30000 kPa | 1312.1 ± 1.9
414.92 K, 40000 kPa | 1319.5 ± 2.2
414.93 K, 101.33 kPa | 1288.6 ± 1.3
414.94 K, 5000 kPa | 1292.5 ± 1.2
414.94 K, 10000 kPa | 1296.6 ± 1.3
414.94 K, 20000 kPa | 1304.5 ± 1.6
414.95 K, 1000 kPa | 1289.4 ± 1.1
